Measurements as given in article PMC7139940, “Comparative Analysis of High-Throughput Assays of Family-1 Plant Glycosyltransferases” (International Journal of Molecular Sciences, 2020).
Like-named read-outs stand apart in the source and are kept apart here.

Test system: T1, UGT72B27
T1 construct: recombinant GST fusion (pGEX-4T-1) from E. coli BL21(DE3) pLysS, purified on GST resin
Experiment: UDP-Glo luminescent UDP release assay, 384-well
Type: biochemical, Vitis vinifera
Conditions: 100 µM UDP-glucose, 50 mM Tris/HCl pH 7.5, 30 °C, 10 min, heat stop, read-out: b. UDP-Glo^TM Assay / KM
From the text: UDP-Glo luminescent UDP release assay, 384-well on UGT72B27

| Km [µM] | Km (poorly soluble, high DMSO) [µM] | Structure (SMILES) |
| --- | --- | --- |
| 23 ± 3 |  | COc1cccc(OC)c1O [DMP, 2,6-Dimethoxyphenol] |
| 453 ± 35 |  | CC1=C(O)C(=O)C(C)O1 (centres unmarked) [Furaneol] |
| 23 ± 1 |  | COc1ccccc1O [Guaiacol, 2-Methoxyphenol] |
| 173 ± 28 |  | COc1cc(C)cc(OC)c1O [MDMP, 4-Methyl-2,6-dimethoxyphenol] |
| 41 ± 9 |  | COc1cc(C)ccc1O [MMP, 2-Methoxy-4-methylphenol] |
| 35 ± 4 |  | Oc1cc(O)cc(O)c1 [Phloroglucinol] |
| 28 ± 7 |  | Cc1ccc(C(C)C)c(O)c1 [Thymol] |
|  | 21 ± 5 | Oc1ccc(/C=C/c2cc(O)cc(O)c2)cc1 [trans-Resveratrol] |

| Structure (SMILES) | Km [µM] | Km (poorly soluble, high DMSO) [µM] |
| --- | --- | --- |
| Oc1ccccc1 [Phenol] | 153 ± 24 |  |
| Cc1cccc(O)c1 [m-Cresol] | 14 ± 3 |  |
| Cc1ccccc1O [o-Cresol] | 40 ± 5 |  |
